Measurements reported in patent publication US6337091B1, “Matrix for controlled delivery of highly soluble pharmaceutical agents” (Temple University - of the Commonwealth System of Higher …, priority 1997, dated 2002).

Experiments:
[1] = Dissolution study of diltiazem hydrochloride tablets, USP 23 apparatus II (paddle), deionized water; format: physicochemical
Protocol: The system was automated using an HP diode array UV spectrophotometer, 8452a with continuous sampling, using a peristaltic pump (HP flow control, 89092A) and Mckinet software (HP 89532K Multicell Kinetics Software) for data analysis. Measurements were performed at 238 nm. […] Fresh dissolution medium (5 mL), heated to 37° C., was added to the vessel to maintain constant volume. Each experimental ran (n=3) was done at least in duplicate. […]

[2] = cited from earlier work
[3] = cited from earlier work; remark: listed apart in the source
[4] = Dissolution study of propranolol tablets in deionized water; format: physicochemical
Protocol: The dissolution study was performed in 1,000 ml deionized water at 37° C. and 100 rpm. Measurements were performed at wavelength 289 nm.

Structure (SMILES) | correlation coefficient of release profile (linearity) ([1]; absence of either gelatin or tragacanth) | correlation coefficient of release profile (linearity) ([1]; diltiazem granulated/coated with gelatin, in binary polymeric matrix) | correlation coefficient of release profile (linearity) ([1]; diltiazem granulated/coated with tragacanth, in binary polymeric matrix) | degradation product, HPLC analysis (USP 23 method) ([1]; entire dissolution period) | bioavailability ([2]; due to extensive variable first-pass metabolism) [%] | clearance from plasma ([2]; in vivo) | elimination half-life ([2]; in vivo) [h] | protein binding [3] | correlation coefficient of release profile (linearity) ([4]; control) | correlation coefficient of release profile (linearity) ([4]; propranolol granulated/coated with gelatin, in binary polymeric matrix) | correlation coefficient of release profile (linearity) ([4]; propranolol granulated/coated with tragacanth, in binary polymeric matrix)
COc1ccc([C@@H]2Sc3ccccc3N(CCN(C)C)C(=O)[C@@H]2OC(C)=O)cc1 [diltiazem, Diltiazem] | 0.946 | 0.997 | 0.979 | no degradation product | 30 to 60 | high clearance | 3 to 6 | greater than 90% |  |  | 
CC(C)NCC(O)COc1cccc2ccccc12 (centres unmarked) [propranolol] |  |  |  |  |  |  |  |  | 0.927 | 0.994 | 0.989
